Results as given in US11053204B2, “Pyrimidinyloxy benzene derivatives as herbicides” (FMC Corporation, priority 2015, dated 2021).

Legend:
Type in all cases: in vivo
[1] = tested on: Italian ryegrass (Lolium multiflorum); assay: Test A preemergence, visual injury rating
Method in brief: (§1)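 Greenhouse pot test, loam/sand soil. Formulation: non-phytotoxic solvent mix plus surfactant. Pre: directed spray onto soil after sowing. Post: plants at 1–2 leaf, 2–10 cm. Rated visually vs untreated controls at ~10 d, 0 (no effect) to 100 (complete control).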

[2] = tested on: barnyardgrass (Echinochloa crus-galli); assay: Test A preemergence, visual injury rating
Method in brief: as §1

[3] = tested on: giant foxtail (Setaria faberii); assay: Test A preemergence, visual injury rating
Method in brief: as §1

[4] = tested on: ragweed (common ragweed, Ambrosia elatior); assay: Test A preemergence, visual injury rating
Method in brief: as §1

[5] = tested on: blackgrass (Alopecurus myosuroides); assay: Test C preemergence, plant response rating; conditions: Preemergence
Method in brief: (§2)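 Pre-emergence: seeds sown in loam soil–sand blend or silt loam and sprayed with test chemicals in a non-phytotoxic solvent mixture with surfactant. Post-emergence: plants 2 to 18 cm (1- to 4-leaf stage) in peat-based potting medium, same formulation. Greenhouse 13 to 15 d; visual rating 0 (no effect) to 100 (complete control) versus controls.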

corn (Zea mays) = assay: Test C preemergence, plant response rating; conditions: Preemergence
Method in brief: as §2

[6] = tested on: crabgrass, large (large crabgrass, Digitaria sanguinalis); assay: Test C preemergence, plant response rating; conditions: Preemergence
Method in brief: as §2

[7] = tested on: foxtail, giant (giant foxtail, Setaria faberii); assay: Test C preemergence, plant response rating; conditions: Preemergence
Method in brief: as §2

[8] = tested on: lambsquarters (Chenopodium album); assay: Test C preemergence, plant response rating; conditions: Preemergence
Method in brief: as §2

[9] = tested on: morningglory (Ipomoea coccinea); assay: Test C preemergence, plant response rating; conditions: Preemergence
Method in brief: as §2

[10] = tested on: nutsedge, yellow (yellow nutsedge, Cyperus esculentus); assay: Test C preemergence, plant response rating; conditions: Preemergence
Method in brief: as §2

[11] = tested on: oilseed rape (Brassica napus); assay: Test C preemergence, plant response rating; conditions: Preemergence
Method in brief: as §2

[12] = tested on: ragweed (common ragweed, Ambrosia elatior); assay: Test C preemergence, plant response rating; conditions: Preemergence
Method in brief: as §2

[13] = tested on: ryegrass, Italian (Italian ryegrass, Lolium multiflorum); assay: Test C preemergence, plant response rating; conditions: Preemergence
Method in brief: as §2

soybean (Glycine max) = assay: Test C preemergence, plant response rating; conditions: Preemergence
Method in brief: as §2

[14] = tested on: velvetleaf (Abutilon theophrasti); assay: Test C preemergence, plant response rating; conditions: Preemergence
Method in brief: as §2

[15] = tested on: waterhemp (common waterhemp, Amaranthus rudis); assay: Test C preemergence, plant response rating; conditions: Preemergence
Method in brief: as §2

[16] = tested on: wheat (winter wheat, Triticum aestivum); assay: Test C preemergence, plant response rating; conditions: Preemergence
Method in brief: as §2

[17] = 31 g ai/ha, 0 to 100 scale, 0 no effect, 100 complete control
[18] = 125 g ai/ha, 0 to 100 scale (0 no effect, 100 complete control)

O=C(CCCC(F)(F)F)c1c(Br)cccc1Oc1ncc(Cl)cn1 [Compound 77]
Plant response rating, Ryegrass, Italian [1, 17]: 0 | Ryegrass, Italian plant response rating [1, 18]: 70 | Plant response rating, Barnyardgrass [2, 17]: 20 | Barnyardgrass plant response rating [2, 18]: 100 | Plant response rating, Foxtail, Giant [3, 17]: 100 | Foxtail, Giant plant response rating [3, 18]: 100 | Plant response rating, Ragweed [4, 17]: 0 | Ragweed plant response rating [4, 18]: 0 | Plant response rating, Blackgrass ([5]; 62 g ai/ha, scale of 0 to 100): 90 | Plant response rating, Blackgrass ([5]; 125 g ai/ha, scale of 0 to 100): 100 | Plant response rating, Blackgrass ([5]; 16 g ai/ha, scale 0 to 100): 5 | Plant response rating, Blackgrass ([5]; 31 g ai/ha, scale 0 to 100): 15 | Plant response rating, Corn (corn (Zea mays); 62 g ai/ha, scale of 0 to 100): 20 | Plant response rating, Corn (corn (Zea mays); 125 g ai/ha, scale of 0 to 100): 35 | Plant response rating, Corn (corn (Zea mays); 16 g ai/ha, scale 0 to 100): 0 | Plant response rating, Corn (corn (Zea mays); 31 g ai/ha, scale 0 to 100): 15 | Plant response rating, Crabgrass, Large ([6]; 62 g ai/ha, scale of 0 to 100): 100 | Plant response rating, Crabgrass, Large ([6]; 125 g ai/ha, scale of 0 to 100): 100 | Plant response rating, Crabgrass, Large ([6]; 16 g ai/ha, scale 0 to 100): 98 | Plant response rating, Crabgrass, Large ([6]; 31 g ai/ha, scale 0 to 100): 100 | Plant response rating, Foxtail, Giant ([7]; 62 g ai/ha, scale of 0 to 100): 100 | Plant response rating, Foxtail, Giant ([7]; 125 g ai/ha, scale of 0 to 100): 100 | Plant response rating, Foxtail, Giant ([7]; 16 g ai/ha, scale 0 to 100): 95 | Plant response rating, Foxtail, Giant ([7]; 31 g ai/ha, scale 0 to 100): 100 | Plant response rating, Lambsquarters ([8]; 125 g ai/ha, scale of 0 to 100): 98 | Plant response rating, Lambsquarters ([8]; 16 g ai/ha, scale 0 to 100): 50 | Plant response rating, Lambsquarters ([8]; 31 g ai/ha, scale 0 to 100): 60 | Plant response rating, Lambsquarters ([8]; 62 g ai/ha, scale 0 to 100): 100 | Plant response rating, Morningglory ([9]; 125 g ai/ha, scale of 0 to 100): 65 | Plant response rating, Morningglory ([9]; 16 g ai/ha, scale 0 to 100): 10 | Plant response rating, Morningglory ([9]; 31 g ai/ha, scale 0 to 100): 20 | Plant response rating, Morningglory ([9]; 62 g ai/ha, scale 0 to 100): 35 | Plant response rating, Nutsedge, Yellow ([10]; 125 g ai/ha, scale of 0 to 100): 30 | Plant response rating, Nutsedge, Yellow ([10]; 16 g ai/ha, scale 0 to 100): 0 | Plant response rating, Nutsedge, Yellow ([10]; 31 g ai/ha, scale 0 to 100): 0 | Plant response rating, Nutsedge, Yellow ([10]; 62 g ai/ha, scale 0 to 100): 0 | Plant response rating, Oilseed Rape ([11]; 125 g ai/ha, scale of 0 to 100): 100 | Plant response rating, Oilseed Rape ([11]; 16 g ai/ha, scale 0 to 100): 0 | Plant response rating, Oilseed Rape ([11]; 31 g ai/ha, scale 0 to 100): 55 | Plant response rating, Oilseed Rape ([11]; 62 g ai/ha, scale 0 to 100): 100 | Plant response rating, Ragweed ([12]; 125 g ai/ha, scale of 0 to 100): 45 | Plant response rating, Ragweed ([12]; 16 g ai/ha, scale 0 to 100): 0 | Plant response rating, Ragweed ([12]; 31 g ai/ha, scale 0 to 100): 0 | Plant response rating, Ragweed ([12]; 62 g ai/ha, scale 0 to 100): 40 | Plant response rating, Ryegrass, Italian ([13]; 125 g ai/ha, scale of 0 to 100): 90 | Plant response rating, Ryegrass, Italian ([13]; 16 g ai/ha, scale 0 to 100): 0 | Plant response rating, Ryegrass, Italian ([13]; 31 g ai/ha, scale 0 to 100): 30 | Plant response rating, Ryegrass, Italian ([13]; 62 g ai/ha, scale 0 to 100): 35 | Plant response rating, Soybean (soybean (Glycine max); 125 g ai/ha, scale of 0 to 100): 25 | Plant response rating, Soybean (soybean (Glycine max); 16 g ai/ha, scale 0 to 100): 5 | Plant response rating, Soybean (soybean (Glycine max); 31 g ai/ha, scale 0 to 100): 5 | Plant response rating, Soybean (soybean (Glycine max); 62 g ai/ha, scale 0 to 100): 15 | Plant response rating, Velvetleaf ([14]; 125 g ai/ha, scale of 0 to 100): 100 | Plant response rating, Velvetleaf ([14]; 16 g ai/ha, scale 0 to 100): 10 | Plant response rating, Velvetleaf ([14]; 31 g ai/ha, scale 0 to 100): 30 | Plant response rating, Velvetleaf ([14]; 62 g ai/ha, scale 0 to 100): 70 | Plant response rating, Waterhemp ([15]; 125 g ai/ha, scale of 0 to 100): 100 | Plant response rating, Waterhemp ([15]; 16 g ai/ha, scale 0 to 100): 95 | Plant response rating, Waterhemp ([15]; 31 g ai/ha, scale 0 to 100): 100 | Plant response rating, Waterhemp ([15]; 62 g ai/ha, scale 0 to 100): 100 | Plant response rating, Wheat ([16]; 125 g ai/ha, scale of 0 to 100): 0 | Plant response rating, Wheat ([16]; 16 g ai/ha, scale 0 to 100): 0 | Plant response rating, Wheat ([16]; 31 g ai/ha, scale 0 to 100): 0 | Plant response rating, Wheat ([16]; 62 g ai/ha, scale 0 to 100): 0
